# Source: patent US11203578B2, “Oxadiazole derivatives for the treatment of genetic diseases due to nonsense mutations” (UNIVERSITA' DEGLI STUDI DIPALERMO, priority 2017, dated 2021)
# Columns and labels:
# HeLa cells = assay: Cytotoxic effects and impact on cell proliferation in HeLa cells; assay type: cell-based; details: 12 μM
# Experimental: HeLa cells were used to determine the possible cytotoxic effects of our compounds and the impact on cell proliferation. In FIG. 7 are reported the percentages of dead cells and proliferating cells after treatment with 12 μM compounds and 12 μM ATALUREN.
# [1] = test system: pFLuc-opal (UGA stop mutation); assay: FLuc cell-based readthrough assay in HeLa FLuc-opal transfected cells; details: 12 μM, 24 hours treatment, pFluc-opal HeLa cells, compared to untreated
# Source text: The results disclosed in (Pibiri I., Lentini L., Tutone M., Melfi R., Pace A., Di Leonardo A. Exploring the readthrough of nonsense mutations by non-acidic Ataluren analogues selected by ligand-based virtual screening. Eur. J. Med. Chem. 122 (2016) 429-435) have been refined with 3D-QSAR (quantitative structure-activity relationships) pharmacophore modelling. The endpoint to build QSAR models was the luciferase activity known data. These values were converted to pFLUC (−log FLUC) values. In order to find the common pharmacophore hypothesis, we divided the 24 compounds in three different classes of activity related to the FLUC values (Pharm set). We considered as active, compounds with FLUC values >4.52 (ATALUREN FLUC value), as inactives, compounds with FLUC values ≤4.00, and as moderate actives, compounds with 4.39≤FLUC values ≤4,51. Dataset was randomly split into a training set (19 compounds) for models generation, and test set (5 compounds) for the validation of developed models, as reported in Table 1.
# To ascertain the effectiveness of the newly synthesized ataluren analogues in promoting the readthrough of premature termination codons was used the FLuc cell-based assay. To this aim HeLa cells were transfected transiently with the plasmids pFLuc-wild type (control) and pFLuc-opal (UGA stop mutation) (NIH Chemical Genomics Center, National Institutes of Health, Bethesda, USA). FLuc gene expression was then measured by luminescence.
# nsCFTR-R553X-opal = assay: Immunofluorescence analysis of CFTR in nsCFTR-R553X-opal FRT cells; assay type: cell-based, human; details: 12 μM, 24 hours
# Experimental: (§1) FRT cells were also engineered with a vector expressing nsCFTR (nonsense). To this aim, Site […] Directed Mutagenesis of the full-length CFTR cDNA cloned in the pTracer Zeocin (pTCF-wild type) vector (provided by Gaslini Hospital Genova, Italy) was performed, the CFTR DNA is available at NCBI Reference Sequence NG_016465.4. With the aim of introducing in the CFTR cDNA single base mutations c1654t or c1657t to convert, respectively, […] 552 (caa>taa ochre) or Arginine 553 (cga>tga opal) in nonsense codons, site-directed mutagenesis of the full-length cDNA cloned in the pTracer Zeocin (pTCF-wild type) vector (provided by Gaslini Hospital Genova, Italy) was performed (CFTR DNA available at NCBI Reference Sequence: NG_016465.4). The pTCF-wild type vector was amplified by PCR with the following primers: […]
# (§2) To further evaluate the efficacy of NV848, NV914 and NV930 FRT cells were transfected with the pTracer vectors containing either the WT-CFTR (CFTRWT) or the R553X-CFTR and the Q552X-CFTR (nsCFTR-R553X-opal, nsCFTR-Q552X ochre) human cDNA and selected by Zeocin resistance. The expression of the CFTRWT and nsCFTR CFTR (nsCFTR-R553X-opal, nsCFTR-Q552X ochre) in transfected FRT cells was evaluated by qRT-PCR. The nsCFTR-Q552X ochre, nsCFTR-R553X-opal FRT transfected cells were treated with NV848, (12 μM), and ATALUREN (12 μM) as positive control, for 24 hours and the expression of the human CFTR was evaluated by immunofluorescence analysis.
# nsCFTR-Q552X ochre = assay: Immunofluorescence analysis of CFTR in nsCFTR-Q552X ochre FRT cells; assay type: cell-based, human; details: 12 μM, 24 hours
# Experimental: as §1, §2
# nsCFTR(G542X-opal) = assay: Immunofluorescence analysis of CFTR in nsCFTR(G542X-opal) FRT cells; assay type: cell-based, human; details: 12 μM, 24 hours
# Experimental: To work in a cell system containing exclusively nonsense mutations and in particular the more representative CFTR nonsense mutation, the G542X, FRT cells were engineered with a vector expressing nsCFTR (nonsense). To this aim, Site Directed Mutagenesis of the full-length CFTR cDNA cloned in the pTracer-Zeocin (pTCF-wild type) vector (Gaslini Hospital Genova, Italy) was performed (CFTR DNA available at NCBI Reference Sequence: NG_016465.4). To substitute the Glicine 542 coding codon GGA with a stop codon, was introduced a single nucleotide mutation. The first guanine of the codon, position 1624 of the cDNA, was changed in a thymine to introduce an opal nonsense mutation. We amplified the plasmid harbouring cDNA with the following primers: […]
# To further evaluate the efficacy of NV914, NV848, NV930, FRT cells were transfected with the pTRACER vectors containing either the wild type CFTR or the nsCFTR(G542X-opal) cDNA and selected by Zeocin resistance. The advantage of the use of these cells is that they don't express cAMP dependent channels (as CFTR) or CFTR protein. The expression of the human CFTR wild type and nsCFTR(G542X-opal) in transfected FRT cells was evaluated by qRT-PCR and Western blot, as shown in FIG. 5.
# The same FRT cells were then treated with NV914, NV848, NV930 (12 μM), and ATALUREN (12 μM) (as positive control) for 24 hours and the expression of the human CFTR wild type and nsCFTR(G542X-opal) was again evaluated by immunofluorescence analysis.
# FRT cells transfected with a pTracer nsCFTR-G542X-opal vector the treated with NV848, NV914, NV930 (12 μM), and ATALUREN (12 μM) as positive control, for 24 hours and the expression of the human CFTR wild type and nsCFTR (nsCFTR-G542X-opal) was evaluated by immunofluorescence analysis.
# In details, immunofluorescence analysis was used to detect the CFTR protein following the readthrough of the UGA stop codon in nsCFTR(opal) FRT cells untreated, treated with G418 as positive contro) and with PTC124 and NV848, Nv914, NV930 for 24 h. […] Nuclei (blue) were DAPI stained.
SMILES,dead cells (HeLa cells; 24 h) [%],dead cells (HeLa cells; 72 h) [%],luciferase activity [1],CFTR full-length expression and membrane localization (nsCFTR-R553X-opal),CFTR full-length expression and membrane localization (nsCFTR-Q552X ochre),CFTR full-length expression and membrane localization (nsCFTR(G542X-opal))
"O=C(Nc1noc(-c2c(F)c(F)c(F)c(F)c2F)n1)c1c(F)c(F)c(F)c(F)c1F [NV914, 2,3,4,5,6-pentafluoro-N-(5-(perfluorophenyl)-1,2,4-oxadiazol-3-yl)benzamide]",5,2,significant increase of luciferase activity,induced the CFTR full-length expression and membrane localization,induced the CFTR full-length expression and membrane localization,induced the CFTR full-length expression and membrane localization
"CC(=O)Nc1noc(C)n1 [NV848, 3-acetylamino-5-methyl-1,2,4-oxadiazole]",7,6,significant increase of luciferase activity,induced the CFTR full-length expression and membrane localization,induced the CFTR full-length expression and membrane localization,induced the CFTR full-length expression and membrane localization
"CCOC(=O)c1noc(-c2ccccc2)n1 [NV930, ethyl 5-phenyl-1,2,4-oxadiazole-3-carboxylate]",2,4,significant increase of luciferase activity,induced the CFTR full-length expression and membrane localization,induced the CFTR full-length expression and membrane localization,induced the CFTR full-length expression and membrane localization
